Literature values, collected in EP0388817A2, “Use of mixed micelles and mixed micelle solutions of immunomodulators” (F. Hoffmann-La Roche AG, priority 1989, dated 1990).

conditions: octanol/water

Verteilungskoeffizient in Octanol/Wasser | Substance
> 10^6 | Vitamin E
> 10^6 | Vitamin A
> 10^6 | Vitamin K
